Experimental data reported in patent publication EP4745137A1 (Gluetacs Therapeutics (Shanghai) Co., Ltd., priority 2023, dated 2025).
Read-outs that look alike come from different tables or passages of the source.

How the values were obtained:
[1] = biological target: T1, IKZF1 (Homo sapiens, UniProt Q13422+Q96SW2); assay: Western-blot assay of substrate protein degradation in hPBMCs, IKZF1; assay type: cell-based; conditions: 24 hours of compound treatment
T1 construct: endogenous in cells; host or cells: hPBMCs (Milecell Biotechnologies)

[2] = biological target: T2, IKZF3 (Homo sapiens, UniProt Q96SW2+Q9UKT9); assay: Western-blot assay of substrate protein degradation in hPBMCs, IKZF3; assay type: cell-based; conditions: 24 hours of compound treatment
T2 construct: endogenous in cells; host or cells: hPBMCs (Milecell Biotechnologies)

[3] = biological target: T3, WEE1 (Homo sapiens, UniProt P30291+Q96SW2); assay: Western-blot assay of substrate protein degradation in hPBMCs, WEE1; assay type: cell-based; conditions: 24 hours of compound treatment
T3 construct: endogenous in cells; host or cells: hPBMCs (Milecell Biotechnologies)

[4] = biological target: T4, IKZF2 (Homo sapiens, UniProt Q96SW2+Q9UKS7); assay: Western-blot assay of substrate protein degradation in hPBMCs, IKZF2; assay type: cell-based; conditions: 24 hours of compound treatment
T4 construct: endogenous in cells; host or cells: hPBMCs (Milecell Biotechnologies)

[5] = biological target: T5, GSPT1 (Homo sapiens, UniProt P15170+Q96SW2); assay: Western-blot assay of substrate protein degradation in hPBMCs, GSPT1; assay type: cell-based; conditions: 24 hours of compound treatment
T5 construct: endogenous in cells; host or cells: hPBMCs (Milecell Biotechnologies)

[6] = biological target: T6, CK1α (Homo sapiens, UniProt P48729+Q96SW2); assay: Western-blot assay of substrate protein degradation in hPBMCs, CK1α; assay type: cell-based; conditions: 24 hours of compound treatment
T6 construct: endogenous in cells; host or cells: hPBMCs (Milecell Biotechnologies)

[7] = biological target: T7, human Cereblon WT GST-tagged protein (Homo sapiens, UniProt Q96SW2); assay: CRBN-binding affinity by HTRF (CEREBLON BINDING kit)
T7 construct: purchased CISBIO 64BDCRBNPEH
Description: The CEREBLON BINDING kits (specification: 10,000 tests; product number: Catalog # 64BDCRBNPEH; CISBIO company) was used to determine the CRBN binding ability of the compounds to be tested through a HTRF method (homogeneous time-resolved fluorescence). The specific methods are as follows: • 1. […] Specifically, diluent #9 (1X) solution was used as the diluent, and multiple concentration gradients were set. […] Then, 2.5 µL of human Cereblon WT GST-tagged protein solution was added to each well. Finally, 5 µL of the thoroughly mixed Thalidomide-Re reagent and GST Eu antibody working solution were added to each of the aforementioned wells. […] The blank control wells were sequentially added with 2.5 µL of diluent #9 (1X) solution, 2.5 µL of binding buffer, and 5 µL of thoroughly mixed Thalidomide-Re reagent and GST Eu antibody working solution. • 4.

[8] = compounds tested at 50 nM and 500 nM (concentration of the table not stated)
[9] = HTRF inhibitory activity, CEREBLON BINDING kit; read-out: HTRF IC50
[10] = 50 nM and 500 nM tested (concentration behind the class not stated)

T2 sequence (Q9UKT9 whole entry): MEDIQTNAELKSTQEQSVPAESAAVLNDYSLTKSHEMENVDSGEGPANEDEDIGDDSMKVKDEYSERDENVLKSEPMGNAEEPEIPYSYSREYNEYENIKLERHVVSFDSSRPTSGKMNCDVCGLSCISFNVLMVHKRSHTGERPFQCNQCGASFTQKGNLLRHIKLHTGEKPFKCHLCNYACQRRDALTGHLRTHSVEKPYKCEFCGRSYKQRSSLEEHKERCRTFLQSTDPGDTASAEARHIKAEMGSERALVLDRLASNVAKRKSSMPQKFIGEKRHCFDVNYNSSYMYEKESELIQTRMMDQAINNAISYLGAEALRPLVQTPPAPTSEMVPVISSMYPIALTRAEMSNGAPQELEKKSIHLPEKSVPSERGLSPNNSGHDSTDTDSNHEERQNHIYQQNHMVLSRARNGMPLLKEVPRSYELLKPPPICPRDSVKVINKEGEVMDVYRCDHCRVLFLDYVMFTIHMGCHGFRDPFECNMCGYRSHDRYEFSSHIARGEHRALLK
T2 sequence (Q96SW2 whole entry): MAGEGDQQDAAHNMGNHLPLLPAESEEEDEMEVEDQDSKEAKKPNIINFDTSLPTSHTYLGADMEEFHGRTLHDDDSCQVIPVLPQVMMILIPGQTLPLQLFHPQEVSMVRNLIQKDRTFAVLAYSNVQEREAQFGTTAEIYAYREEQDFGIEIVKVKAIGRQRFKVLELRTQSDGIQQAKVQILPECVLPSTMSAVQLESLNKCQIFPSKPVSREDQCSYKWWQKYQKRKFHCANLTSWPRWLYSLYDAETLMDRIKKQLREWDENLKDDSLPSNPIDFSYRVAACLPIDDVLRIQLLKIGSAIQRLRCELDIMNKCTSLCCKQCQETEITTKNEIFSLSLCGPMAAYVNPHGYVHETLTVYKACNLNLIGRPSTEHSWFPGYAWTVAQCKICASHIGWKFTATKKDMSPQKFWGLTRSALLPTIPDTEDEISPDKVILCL
T2 sequence (Q16531 whole entry partner): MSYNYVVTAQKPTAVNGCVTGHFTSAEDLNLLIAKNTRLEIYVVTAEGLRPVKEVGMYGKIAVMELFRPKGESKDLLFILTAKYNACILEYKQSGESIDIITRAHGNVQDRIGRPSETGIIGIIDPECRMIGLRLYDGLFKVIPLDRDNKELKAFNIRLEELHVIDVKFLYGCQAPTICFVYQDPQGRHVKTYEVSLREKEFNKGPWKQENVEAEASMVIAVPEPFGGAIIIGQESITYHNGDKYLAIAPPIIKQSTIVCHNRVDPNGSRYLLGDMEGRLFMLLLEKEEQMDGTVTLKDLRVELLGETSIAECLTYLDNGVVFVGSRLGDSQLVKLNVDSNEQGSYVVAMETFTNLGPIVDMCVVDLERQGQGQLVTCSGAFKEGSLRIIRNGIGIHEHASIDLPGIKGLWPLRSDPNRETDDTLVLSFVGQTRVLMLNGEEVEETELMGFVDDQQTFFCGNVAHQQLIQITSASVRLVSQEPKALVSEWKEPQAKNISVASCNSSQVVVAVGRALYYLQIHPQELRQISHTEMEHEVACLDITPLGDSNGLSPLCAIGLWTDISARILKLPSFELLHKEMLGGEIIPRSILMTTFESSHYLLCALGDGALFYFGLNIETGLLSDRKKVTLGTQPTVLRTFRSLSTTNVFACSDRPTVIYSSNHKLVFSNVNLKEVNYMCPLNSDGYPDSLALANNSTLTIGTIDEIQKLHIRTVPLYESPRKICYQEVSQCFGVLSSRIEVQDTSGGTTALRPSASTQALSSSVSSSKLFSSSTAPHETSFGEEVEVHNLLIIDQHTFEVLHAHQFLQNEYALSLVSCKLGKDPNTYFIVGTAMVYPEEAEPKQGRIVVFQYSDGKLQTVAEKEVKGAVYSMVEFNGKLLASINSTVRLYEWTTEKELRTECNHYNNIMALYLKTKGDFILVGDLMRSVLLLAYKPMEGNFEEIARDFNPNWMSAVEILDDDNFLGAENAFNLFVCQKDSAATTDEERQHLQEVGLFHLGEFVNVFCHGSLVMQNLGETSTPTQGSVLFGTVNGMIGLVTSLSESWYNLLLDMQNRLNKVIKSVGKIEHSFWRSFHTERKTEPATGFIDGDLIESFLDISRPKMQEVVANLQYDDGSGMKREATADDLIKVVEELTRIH
T1 sequence (Q13422 whole entry): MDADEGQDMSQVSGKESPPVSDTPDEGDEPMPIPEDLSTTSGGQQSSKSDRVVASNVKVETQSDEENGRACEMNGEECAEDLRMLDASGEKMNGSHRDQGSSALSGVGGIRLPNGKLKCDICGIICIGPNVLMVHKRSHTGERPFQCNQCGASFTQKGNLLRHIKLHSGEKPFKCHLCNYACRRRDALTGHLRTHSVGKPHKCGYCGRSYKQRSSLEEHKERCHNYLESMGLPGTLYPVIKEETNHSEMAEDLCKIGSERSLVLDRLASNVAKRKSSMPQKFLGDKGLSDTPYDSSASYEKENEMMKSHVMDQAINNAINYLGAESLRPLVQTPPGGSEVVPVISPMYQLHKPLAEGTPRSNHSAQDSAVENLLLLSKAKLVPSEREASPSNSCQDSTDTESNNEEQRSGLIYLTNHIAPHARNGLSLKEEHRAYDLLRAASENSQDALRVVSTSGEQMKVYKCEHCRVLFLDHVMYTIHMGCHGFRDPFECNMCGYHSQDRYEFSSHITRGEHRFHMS
T1 sequence (Q96SW2 whole entry): as the sequence (Q96SW2 whole entry) above
T1 sequence (Q16531 whole entry partner): as the sequence (Q16531 whole entry partner) above
T4 sequence (Q9UKS7 whole entry): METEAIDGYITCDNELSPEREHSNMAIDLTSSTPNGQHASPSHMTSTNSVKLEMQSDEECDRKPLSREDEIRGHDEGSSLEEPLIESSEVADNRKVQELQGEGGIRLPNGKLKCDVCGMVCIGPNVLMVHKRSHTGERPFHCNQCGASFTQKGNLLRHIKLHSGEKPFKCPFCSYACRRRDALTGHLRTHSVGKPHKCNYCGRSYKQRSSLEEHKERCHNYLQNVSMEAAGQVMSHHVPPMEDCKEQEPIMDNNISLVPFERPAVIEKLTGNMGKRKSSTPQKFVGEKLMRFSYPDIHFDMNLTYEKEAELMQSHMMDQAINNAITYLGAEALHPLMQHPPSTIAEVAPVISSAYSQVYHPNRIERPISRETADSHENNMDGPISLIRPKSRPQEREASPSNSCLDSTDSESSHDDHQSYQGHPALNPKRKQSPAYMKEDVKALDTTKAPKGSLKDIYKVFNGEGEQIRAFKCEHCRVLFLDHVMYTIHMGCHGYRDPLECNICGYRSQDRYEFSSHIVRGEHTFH
T4 sequence (Q96SW2 whole entry): as the sequence (Q96SW2 whole entry) above
T4 sequence (Q16531 whole entry partner): as the sequence (Q16531 whole entry partner) above
T7 sequence (Q96SW2 whole entry): as the sequence (Q96SW2 whole entry) above
T6 sequence (P48729 whole entry): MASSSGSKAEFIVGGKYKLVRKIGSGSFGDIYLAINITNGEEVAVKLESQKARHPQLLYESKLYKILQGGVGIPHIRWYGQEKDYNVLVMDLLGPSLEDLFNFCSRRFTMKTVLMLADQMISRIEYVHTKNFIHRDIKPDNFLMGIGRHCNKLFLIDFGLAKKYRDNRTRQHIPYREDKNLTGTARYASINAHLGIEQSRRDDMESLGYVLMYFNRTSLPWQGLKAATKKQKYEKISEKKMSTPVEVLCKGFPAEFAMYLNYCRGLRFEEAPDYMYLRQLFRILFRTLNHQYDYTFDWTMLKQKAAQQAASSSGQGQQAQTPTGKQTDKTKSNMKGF
T6 sequence (Q96SW2 whole entry): as the sequence (Q96SW2 whole entry) above
T6 sequence (Q16531 whole entry partner): as the sequence (Q16531 whole entry partner) above
T3 sequence (P30291 whole entry): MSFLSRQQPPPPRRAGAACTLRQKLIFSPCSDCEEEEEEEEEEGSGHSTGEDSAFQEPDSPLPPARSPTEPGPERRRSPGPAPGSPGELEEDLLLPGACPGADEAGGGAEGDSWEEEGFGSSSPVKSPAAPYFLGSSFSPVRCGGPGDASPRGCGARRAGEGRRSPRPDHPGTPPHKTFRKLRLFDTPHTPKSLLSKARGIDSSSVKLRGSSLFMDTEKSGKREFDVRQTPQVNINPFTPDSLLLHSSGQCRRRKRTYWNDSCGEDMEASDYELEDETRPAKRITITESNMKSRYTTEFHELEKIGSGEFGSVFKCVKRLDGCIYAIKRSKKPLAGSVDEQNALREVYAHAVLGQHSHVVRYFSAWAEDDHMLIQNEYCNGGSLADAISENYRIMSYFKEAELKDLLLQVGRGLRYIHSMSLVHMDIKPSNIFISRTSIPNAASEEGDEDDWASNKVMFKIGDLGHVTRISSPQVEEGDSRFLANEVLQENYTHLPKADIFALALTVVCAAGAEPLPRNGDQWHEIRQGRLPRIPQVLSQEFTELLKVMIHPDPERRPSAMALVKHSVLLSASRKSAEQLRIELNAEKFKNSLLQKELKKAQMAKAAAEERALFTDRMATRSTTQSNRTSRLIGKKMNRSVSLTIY
T3 sequence (Q96SW2 whole entry): as the sequence (Q96SW2 whole entry) above
T3 sequence (Q16531 whole entry partner): as the sequence (Q16531 whole entry partner) above

Row | Compound | IKZF 1 substrate protein remaining % [1, 8] | IKZF3 substrate protein remaining % [2, 8] | Weel substrate protein remaining % [3, 8] | IKZF2 substrate protein remaining % [4, 8] | GSPT1 substrate protein remaining % [5, 8] | CK1a substrate protein remaining % [6, 8] | IC50 [7, 9] [nM] | also measured
1 | O=C1CCC(N2Cc3cc(CN4CCN(c5ccnc(Cl)c5F)CC4)ccc3C2=O)C(=O)N1 (stereo not drawn) [GT-04612, 3-(5-((4-(2-chloro-3-fluoropyridin-4-yl)piperazin-1-yl)methyl)-1-oxoisoindolin-2-yl)piperidine-2,6-dione] | B (80%< substrate protein remaining %≤ 100%) | B (80%< substrate protein remaining %≤ 100%) | A (0% ≤ substrate protein remaining % ≤ 80%) | B (80%< substrate protein remaining %≤ 100%) | A (0% ≤ substrate protein remaining % ≤ 80%) | B (80%< substrate protein remaining %≤ 100%) | 500 to 1000 | 
2 | O=C1CCC(N2Cc3cc(CN4CCN(c5ccc(C(F)(F)F)cc5)CC4)ccc3C2=O)C(=O)N1 (stereo not drawn) [GT-04451, 3-(1-oxo-5-((4-(4-(trifluoromethyl)phenyl)piperazin-1-yl)methyl)isoindolin-2-yl)piperidine-2,6-dione] | B (80%< substrate protein remaining %≤ 100%) | B (80%< substrate protein remaining %≤ 100%) | B (80%< substrate protein remaining %≤ 100%) | B (80%< substrate protein remaining %≤ 100%) | A (0% ≤ substrate protein remaining % ≤ 80%) | B (80%< substrate protein remaining %≤ 100%) | 1000 to 1500 | 
3 | O=C1CCC(N2Cc3cc(CN4CCN(c5ccncc5)CC4)ccc3C2=O)C(=O)N1 (stereo not drawn) [GT-04450, 3-(1-oxo-5-((4-(pyridin-4-yl)piperazin-1-yl)methyl)isoindolin-2-yl)piperidine-2,6-dione] | B (80%< substrate protein remaining %≤ 100%) | B (80%< substrate protein remaining %≤ 100%) | B (80%< substrate protein remaining %≤ 100%) | B (80%< substrate protein remaining %≤ 100%) | A (0% ≤ substrate protein remaining % ≤ 80%) | B (80%< substrate protein remaining %≤ 100%) | 500 to 1000 | 
4 | O=C1CCC(N2C(=O)c3ccc(CN4CCC(c5c[nH]c6ncccc56)CC4)cc3C2=O)C(=O)N1 (stereo not drawn) [GT-06705, 5-((4-(1H-pyrrolo[2,3-b]pyridin-3-yl)piperidin-1-yl)methyl)-2-(2,6-dioxopiperidin-3-yl)isoindoline-1,3-dione] |  |  |  |  |  |  | 1500 to 1900 | IKZF 1 substrate protein remaining % [1, 10]: B (80%< substrate protein remaining %≤ 100%); IKZF3 substrate protein remaining % [2, 10]: B (80%< substrate protein remaining %≤ 100%); Weel substrate protein remaining % [3, 10]: A (0% ≤ substrate protein remaining % ≤ 80%); IKZF2 substrate protein remaining % [4, 10]: B (80%< substrate protein remaining %≤ 100%); GSPT1 substrate protein remaining % [5, 10]: A (0% ≤ substrate protein remaining % ≤ 80%); CK1a substrate protein remaining % [6, 10]: B (80%< substrate protein remaining %≤ 100%)
5 | O=C1CCC(N2Cc3cc(CN4CCN(c5ccncc5Cl)CC4)ccc3C2=O)C(=O)N1 (stereo not drawn) [GT-04481, 3-(5-((4-(3-chloropyridin-4-yl)piperazin-1-yl)methyl)-1-oxoisoindolin-2-yl)piperidine-2,6-dione] | A (0% ≤ substrate protein remaining % ≤ 80%) | B (80%< substrate protein remaining %≤ 100%) | A (0% ≤ substrate protein remaining % ≤ 80%) | A (0% ≤ substrate protein remaining % ≤ 80%) | A (0% ≤ substrate protein remaining % ≤ 80%) | A (0% ≤ substrate protein remaining % ≤ 80%) | 500 to 1000 | 
6 | Cc1nc(C2CCN(Cc3ccc4c(c3)CN(C3CCC(=O)NC3=O)C4=O)CC2)c2c3c(sc2n1)CCC3 (stereo not drawn) [GT-05210, 3-(5-((4-(2-methyl-6,7-dihydro-5H-cyclopenta[4,5]thieno[2,3-d]pyrimidin-4-yl)piperidin-1-yl)methyl)-1-oxoisoindolin-2-yl)piperidine-2,6-dione] | A (0% ≤ substrate protein remaining % ≤ 80%) | A (0% ≤ substrate protein remaining % ≤ 80%) | A (0% ≤ substrate protein remaining % ≤ 80%) | A (0% ≤ substrate protein remaining % ≤ 80%) | B (80%< substrate protein remaining %≤ 100%) | A (0% ≤ substrate protein remaining % ≤ 80%) | 500 to 1000 | 
7 | O=C1CCC(N2Cc3cc(CN4CCN(c5ccncc5F)CC4)ccc3C2=O)C(=O)N1 (stereo not drawn) [GT-04581, 3-(5-((4-(3-fluoropyridin-4-yl)piperazin-1-yl)methyl)-1-oxoisoindolin-2-yl)piperidine-2,6-dione] | B (80%< substrate protein remaining %≤ 100%) | A (0% ≤ substrate protein remaining % ≤ 80%) | B (80%< substrate protein remaining %≤ 100%) | A (0% ≤ substrate protein remaining % ≤ 80%) | B (80%< substrate protein remaining %≤ 100%) | B (80%< substrate protein remaining %≤ 100%) | 1000 to 1500 | 
8 | O=C1CCC(N2Cc3cc(CN4CCN(c5ncnc6sc7c(c56)CCCC7)CC4)ccc3C2=O)C(=O)N1 (stereo not drawn) [GT-05209, 3-(1-oxo-5-((4-(5,6,7,8-tetrahydrobenzo[4,5]thieno[2,3-d]pyrimidin-4-yl)piperazin-1-yl)methyl)isoindolin-2-yl)piperidine-2,6-dione] | A (0% ≤ substrate protein remaining % ≤ 80%) | A (0% ≤ substrate protein remaining % ≤ 80%) | A (0% ≤ substrate protein remaining % ≤ 80%) | A (0% ≤ substrate protein remaining % ≤ 80%) | B (80%< substrate protein remaining %≤ 100%) | B (80%< substrate protein remaining %≤ 100%) | < 500 | 
9 | O=C1CCC(N2C(=O)c3ccc(CN4CCC(=C5CCOc6cc(F)ccc65)CC4)cc3C2=O)C(=O)N1 (stereo not drawn) [GT-06238, 2-(2,6-dioxopiperidin-3-yl)-5-((4-(7-fluorochroman-4-ylidene)piperidin-1-yl)methyl)isoindoline-1,3-dione] | B (80%< substrate protein remaining %≤ 100%) | A (0% ≤ substrate protein remaining % ≤ 80%) | B (80%< substrate protein remaining %≤ 100%) | A (0% ≤ substrate protein remaining % ≤ 80%) | A (0% ≤ substrate protein remaining % ≤ 80%) | B (80%< substrate protein remaining %≤ 100%) | 1000 to 1500 | 
10 | O=C1CCC(N2Cc3cc(CN4CCN(c5c(Cl)cncc5Cl)CC4)ccc3C2=O)C(=O)N1 (stereo not drawn) [GT-04436, 3-(5-((4-(3,5-dichloropyridin-4-yl)piperazin-1-yl)methyl)-1-oxoisoindolin-2-yl)piperidine-2,6-dione] |  |  |  |  |  |  | < 500 | 
11 | O=C1CCC(N2Cc3cc(CN4CCC(c5noc6cc(F)ccc56)CC4)cc(F)c3C2=O)C(=O)N1 (stereo not drawn) [GT-04767, 3-(7-fluoro-5-((4-(6-fluorobenzo[d]isoxazol-3-yl)piperidin-1-yl)methyl)-1-oxoisoindolin-2-yl)piperidine-2,6-dione] |  |  |  |  |  |  | 500 to 1000 | 
12 | O=C1CCC(N2C(=O)c3ccc(CN4CCC(c5ncnc6scc(-c7ccccc7)c56)CC4)cc3C2=O)C(=O)N1 (stereo not drawn) [GT-06595, 2-(2,6-dioxopiperidin-3-yl)-5-((4-(5-phenylthieno[2,3-d]pyrimidin-4-yl)piperidin-1-yl)methyl)isoindoline-1,3-dione] |  |  |  |  |  |  | 1000 to 1500 | 
13 | O=C1CCC(N2Cc3cc(CN4CCN(c5ccnc(Cl)c5)CC4)ccc3C2=O)C(=O)N1 (stereo not drawn) [GT-04435, 3-(5-((4-(2-chloropyridin-4-yl)piperazin-1-yl)methyl)-1-oxoisoindolin-2-yl)piperidine-2,6-dione] |  |  |  |  |  |  | < 500 | 
14 | O=C1CCC(N2Cc3ccc(CN4CCC(c5noc6cc(F)ccc56)CC4)cc3C2=O)C(=O)N1 (stereo not drawn) [GT-04768, 3-(6-((4-(6-fluorobenzo[d]isoxazol-3-yl)piperidin-1-yl)methyl)-1-oxoisoindolin-2-yl)piperidine-2,6-dione] |  |  |  |  |  |  | 1500 to 1900 | 
15 | O=C1CCC(N2C(=O)c3ccc(CN4CCN(c5nc6c(c(N7CCOCC7)n5)SCC6)CC4)cc3C2=O)C(=O)N1 (stereo not drawn) [GT-06713, 2-(2,6-dioxopiperidin-3-yl)-5-((4-(4-morpholino-6,7-dihydrothieno[3,2-d]pyrimidin-2-yl)piperazin-1-yl)methyl)isoindoline-1,3-dione] |  |  |  |  |  |  |  | IC50 ([7]; read-out: HTRF IC50; HTRF inhibitory activity, CEREBLON BINDING kit): 1500 to 1900 nM
